Data as given in ChEMBL document CHEMBL4706630, “Modulation of the G-Protein-Coupled Receptor 84 (GPR84) by Agonists and Antagonists” (J Med Chem, 2020).
pEC50, pIC50: −log10 of the molar value. Values belong to the molecule of their own block, whether it stands above or below them.

Assays:
[1] = target: T1, G-protein coupled receptor 84 (Mus musculus, UniProt Q8CIM5); assay: Antagonist activity at GPR84 in LPS-treated mouse RAW 264.7 cell membrane assessed as reduction in PSB-16671-induced stimulation of [35S]GTPgammaS binding preincubated for 15 mins followed by PSB-16671 addition and subsequent addition of [35S]GTPgammaS measured after 60 mins by liquid scintillation spectroscopy; format: functional, cell membranes, RAW264.7
T1 sequence (Q8CIM5 whole entry): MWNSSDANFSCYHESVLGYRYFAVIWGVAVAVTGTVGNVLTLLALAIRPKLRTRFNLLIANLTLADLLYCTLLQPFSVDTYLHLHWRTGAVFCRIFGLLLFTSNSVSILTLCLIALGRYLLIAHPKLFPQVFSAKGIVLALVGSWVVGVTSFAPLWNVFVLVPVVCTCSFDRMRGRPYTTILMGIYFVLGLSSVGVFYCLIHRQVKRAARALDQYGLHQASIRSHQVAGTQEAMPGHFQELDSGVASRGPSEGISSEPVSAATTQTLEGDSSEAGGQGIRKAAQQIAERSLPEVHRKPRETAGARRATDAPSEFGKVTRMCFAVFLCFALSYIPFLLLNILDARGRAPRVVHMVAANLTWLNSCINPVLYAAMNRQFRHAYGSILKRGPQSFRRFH

[2] = target: T2, G-protein coupled receptor 84 (Homo sapiens, UniProt Q9NQS5); assay: (§1) Antagonist activity at GPR84 in LPS-treated human THP-1 cell membrane assessed as reduction in ZQ-16-induced stimulation of [35S]GTPgammaS binding preincubated for 15 mins followed by ZQ-16 addition and subsequent addition of [35S]GTPgammaS measured after 60 mins by liquid scintillation spectroscopy; format: functional
T2 sequence (Q9NQS5 whole entry, the tested form may be a part): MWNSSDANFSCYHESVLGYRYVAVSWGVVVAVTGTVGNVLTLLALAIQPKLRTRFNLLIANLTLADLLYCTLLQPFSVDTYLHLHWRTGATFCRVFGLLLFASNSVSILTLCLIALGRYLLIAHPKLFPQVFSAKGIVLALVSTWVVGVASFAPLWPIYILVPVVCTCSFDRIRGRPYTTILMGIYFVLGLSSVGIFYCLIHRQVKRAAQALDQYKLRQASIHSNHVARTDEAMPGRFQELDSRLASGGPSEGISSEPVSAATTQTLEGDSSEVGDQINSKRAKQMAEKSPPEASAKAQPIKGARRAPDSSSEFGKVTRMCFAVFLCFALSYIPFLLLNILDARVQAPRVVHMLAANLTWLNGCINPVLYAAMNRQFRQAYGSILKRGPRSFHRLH

[3] = target: T2, G-protein coupled receptor 84; assay: (§2) Antagonist activity at recombinant human N-terminal epitope tagged/eYFP-fused FLAG-tagged GPR84 expressed in Flp-In TREx 293 cells assessed as inhibition of decanoic acid-induced [35S]GTPgammaS binding pre-incubated for 15 mins followed by [35S]GTPgammaS addition and measured after 45 mins by liquid scintillation spectrometry; format: functional, cell-based, Flp-In-T-REx-293
[4] = target: T2, G-protein coupled receptor 84; assay: (§3) Antagonist activity at human Flag-tagged Gialpha-coupled GPR84 expressed in human Flp-In-T-REx-293 cell membrane assessed as reduction in PSB-16671-induced stimulation of [35S]GTPgammaS binding preincubated for 15 mins followed by PSB-16671 addition and subsequent addition of [35S]GTPgammaS measured after 60 mins by liquid scintillation spectroscopy; format: functional, cell membranes
[5] = target: T1, G-protein coupled receptor 84; assay: as §3, with “mouse Galphai2-coupled” for “human Flag-tagged Gialpha-coupled”; format: functional, cell membranes
[6] = target: T2, G-protein coupled receptor 84; assay: as §1, with “PSB-16671-induced” for “ZQ-16-induced”, “PSB-16671” for “ZQ-16”; format: functional
[7] = target: T2, G-protein coupled receptor 84; assay: as §2, with “embelin-induced” for “decanoic acid-induced”; format: functional, cell-based, Flp-In-T-REx-293
[8] = target: T2, G-protein coupled receptor 84; assay: as §2, with “DIM-induced” for “decanoic acid-induced”; format: functional, cell-based, Flp-In-T-REx-293
[9] = target: T2, G-protein coupled receptor 84; assay: Antagonist activity at human GPR84 expressed in CHO-K1 cells assessed as reduction in 6-OAU-induced inhibition of forskolin stimulated cAMP production preincubated for 15 mins followed by forskolin and 6-OAU stimulation and measured after 30 mins by luminescence method; format: functional, cell-based
[10] = target: T1, G-protein coupled receptor 84; assay: Agonist activity at GPR84 in mouse bone-marrow-derived neutrophils assessed as stimulation of [35S]GTPgammaS binding incubated for 60 mins by liquid scintillation spectroscopy; format: functional, tissue-based, Neutrophil
[11] = target: T2, G-protein coupled receptor 84; assay: Agonist activity at human Gialpha-coupled GPR84 expressed in baculovirus infected sf9 insect cells assessed as induction of [35S]GTPgammaS incubated for 1 hr by liquid scintillation counting method; format: functional
[12] = target: T2, G-protein coupled receptor 84; assay: Agonist activity at human GPR84 expressed in CHO cells assessed as reduction in forskolin-stimulated cAMP production preincubated for 20 mins followed by forskolin stimulation and measured after 20 mins by cAMP assay; format: functional, cell-based
[13] = target: T2, G-protein coupled receptor 84; assay: Agonist activity at human GPR84 expressed in CHO cell membranes assessed as induction of [35S]GTPgammaS incorporation incubated for 1 hr by liquid scintillation counting method; format: functional, Cell membrane

Compound: O=c1nc(OC[C@@H]2COCCO2)cc2n1CCc1cc(COCC3CCOCC3)ccc1-2
pIC50 [3]: 6.77
pIC50 [7]: 7.08
pIC50 [8]: 7.26

Compound: O=c1nc(OC[C@H]2COCCO2)cc2n1CCc1cc(OCc3noc(C4CC4)n3)ccc1-2
pIC50 [3]: 7.55
pIC50 [7]: 7.85
pIC50 [8]: 7.07

Compound: Fc1cc(F)c2[nH]cc(Cc3c[nH]c4c(F)cc(F)cc34)c2c1
pEC50 [10]: 5.54

Compound: CCCCCCCCC(=O)O [NONANOATE]
pEC50 [12]: 4.28
pEC50 [13]: 4.15

The next lines start with the values.

pIC50 [1]: 6.84
pIC50 [2]: 7.85
pIC50 [3]: 7.60
pIC50 [4]: 9.05
pIC50 [5]: 7.17
pIC50 [6]: 8.32
pIC50 [7]: 7.66
pIC50 [8]: 7.68
Compound: O=c1nc(OCC2COCCO2)cc2n1CCc1cc(C#CCNc3ccccc3)ccc1-2 (stereo not given)

pIC50 [9]: 6.59
Compound: O=c1nc(OCC2COCCO2)cc2n1CCc1cc(OCc3ccccn3)ccc1-2 (stereo not given)

pEC50 [10]: 7.89
Compound: CCCCCCSc1nc(O)cc(O)n1

pEC50 [11]: 4.89
Compound: CCCCCCCCCC(O)CC(=O)O (stereo not given)
